Several values for one entry are separate records, joined by “and”; a condition that tells them apart may be missing. Identical values can stand only once. Inconclusive results and toxic doses are left out.
Test system: BDF1 mice, P388 leukemia ip, median survival T/C
Experiment: NCI In Vivo Anticancer Drug Screen. Data for tumor model P388 Leukemia (intraperitoneal) in B6D2F1 (BDF1) mice
Details: endpoint: median survival time, higher = longer survival
Summary of the method: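 In tumour-bearing mice, survival after compound treatment is set against the vehicle group and given as a quotient.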

[1] = dose: 150.0 mg/kg/injection, schedule: Q01DX009 (ip), vehicle: saline with Tween-80
[2] = dose: 200.0 mg/kg/injection, schedule: Q01DX009 (ip), vehicle: saline
[3] = dose: 100.0 mg/kg/injection, schedule: Q04DX003 (ip), vehicle: saline with Tween-80
[4] = dose: 200.0 mg/kg/injection, schedule: Q04DX003 (ip), vehicle: saline with Tween-80
[5] = dose: 400.0 mg/kg/injection, schedule: Q04DX003 (ip), vehicle: saline with Tween-80
[6] = dose: 100.0 mg/kg/injection, schedule: Q01DX009 (ip), vehicle: Klucel (hydroxypropylcellulose) (HPC)
[7] = dose: 25.0 mg/kg/injection, schedule: Q01DX009 (ip), vehicle: saline with Tween-80
[8] = dose: 50.0 mg/kg/injection, schedule: Q01DX009 (ip), vehicle: saline with Tween-80
[9] = dose: 100.0 mg/kg/injection, schedule: Q01DX009 (ip), vehicle: saline with Tween-80
[10] = dose: 200.0 mg/kg/injection, schedule: Q01DX009 (ip), vehicle: saline with Tween-80
[11] = dose: 100.0 mg/kg/injection, schedule: Q04DX003 (ip), vehicle: saline
[12] = dose: 132.0 mg/kg/injection, schedule: Q04DX003 (ip), vehicle: saline with Tween-80
[13] = dose: 3.13 mg/kg/injection, schedule: Q01DX009 (ip), vehicle: water
[14] = dose: 6.25 mg/kg/injection, schedule: Q01DX009 (ip), vehicle: water
[15] = dose: 400.0 mg/kg/injection, schedule: Q01DX009 (ip), vehicle: saline with Tween-80
[16] = dose: 12.5 mg/kg/injection, schedule: Q01DX009 (ip), vehicle: saline with Tween-80

For `CCCCOC(=O)C1(N)CCCC1`, the T/C (dose: 50.0 mg/kg/injection, schedule: Q01DX009 (ip), vehicle: saline) was 104 % of control, the T/C [1] was 120 % of control and the T/C [2] was 109 % of control.

With `CN(C)c1ccc(NC(=O)Nc2cccc(Cl)c2)cc1` the T/C [3] was 95 % of control, the T/C [4] was 90 % of control and the T/C [5] was 95 % of control.

In the case of `Cc1ccc2c(c1)N=Cc1ccccc1O2`, the T/C (dose: 50.0 mg/kg/injection, schedule: Q01DX009 (ip), vehicle: saline + alcohol) is reported as 104 % of control, the T/C (dose: 100.0 mg/kg/injection, schedule: Q01DX009 (ip), vehicle: saline + alcohol) is reported as 110 % of control and the T/C (dose: 200.0 mg/kg/injection, schedule: Q01DX009 (ip), vehicle: saline + alcohol) is reported as 106 % of control.

With `Nc1ccc(C(=O)O)cc1S(=O)(=O)c1cc(C(=O)O)ccc1N` the T/C (dose: 50.0 mg/kg/injection, schedule: Q01DX009 (ip), vehicle: Klucel (hydroxypropylcellulose) (HPC)) was 88 % of control and the T/C [6] was 91 % of control.

With `CCNC(C)(C)C(SS(=O)(=O)O)c1ccc(Cl)s1` (configuration not stated) the T/C [7] was 103 % of control, the T/C [8] was 95 % of control and 121 % of control and the T/C (dose: 75.0 mg/kg/injection, schedule: Q01DX009 (ip), vehicle: saline with Tween-80) was 103 % of control. For the same compound, the T/C [9] was 102 % of control, the T/C [3] was 95 % of control and the T/C [10] was 102 % of control. For the same compound, the T/C [4] was 94 % of control and the T/C (dose: 300.0 mg/kg/injection, schedule: Q01DX009 (ip), vehicle: saline with Tween-80) was 101 % of control.

For `CC(=O)Nc1onc(C)c1[N+](=O)[O-]`, the T/C (dose: 100.0 mg/kg/injection, schedule: Q01DX009 (ip), vehicle: saline) was 100 % of control, the T/C [11] was 104 % of control and the T/C [2] was 100 % of control. The T/C (dose: 200.0 mg/kg/injection, schedule: Q04DX003 (ip), vehicle: saline) was 109 % of control, the T/C (dose: 400.0 mg/kg/injection, schedule: Q01DX009 (ip), vehicle: saline) was 104 % of control and the T/C (dose: 400.0 mg/kg/injection, schedule: Q04DX003 (ip), vehicle: saline) was 109 % of control.

`CS(=O)(=O)ON1C(=O)c2ccccc2C1=O` was tested, and the T/C [11] was 120 % of control.

For `O=P(OCc1ccccc1)(N(CCCl)CCCl)N1CCN(P(=O)(OCc2ccccc2)N(CCCl)CCCl)CC1` (configuration not stated), the T/C [12] was 172 % of control and the T/C [4] was 154 % of control and 172 % of control.

`Oc1cccc2cccnc12` was tested, and the T/C [8] was 100 % of control and the T/C [9] was 97 % of control.

With `COc1ccc(C(O)(CS(C)(=O)=O)c2cccs2)cc1` (configuration not stated) the T/C [8] was 110 % of control, the T/C [9] was 110 % of control and the T/C [10] was 103 % of control.

With `COc1cccc2c1C(=O)c1c(O)c3c(c(O)c1C2=O)CC(O)(/C(C)=N/NC(=O)CC(=O)N/N=C(\C)C1(O)Cc2c(O)c4c(c(O)c2C(OC2CC(N)C(O)C(C)O2)C1)C(=O)c1c(OC)cccc1C4=O)CC3OC1CC(N)C(O)C(C)O1` (configuration not stated) the T/C [13] was 157 % of control and the T/C [14] was 186 % of control.

`CCCC(=O)Nc1ccc(N)cc1OC` was tested, and the T/C (dose: 5.0 mg/kg/injection, schedule: Q01DX009 (ip), vehicle: saline) was 100 % of control, the T/C (dose: 5.0 mg/kg/injection, schedule: Q04DX003 (ip), vehicle: saline) was 91 % of control and the T/C (dose: 10.0 mg/kg/injection, schedule: Q01DX009 (ip), vehicle: saline) was 100 % of control. The T/C (dose: 10.0 mg/kg/injection, schedule: Q04DX003 (ip), vehicle: saline) was 100 % of control, the T/C (dose: 20.0 mg/kg/injection, schedule: Q01DX009 (ip), vehicle: saline) was 100 % of control and the T/C (dose: 20.0 mg/kg/injection, schedule: Q04DX003 (ip), vehicle: saline) was 91 % of control.

For `COC(=O)C(CSCSC)NC(=O)/C=C/c1ccccc1Cl` (configuration not stated), the T/C [3] was 100 % of control, the T/C [4] was 87 % of control and 104 % of control and the T/C [5] was 90 % of control.

In the case of `O=C(Oc1cc(Cl)ccc1Cl)c1ccccc1`, the T/C [8] is reported as 122 % of control, the T/C [9] is reported as 89 % of control and the T/C [15] is reported as 89 % of control.

`O=c1cc(O)ccn1CCc1cccs1` was tested, and the T/C [16] was 109 % of control, the T/C [7] was 109 % of control and the T/C [8] was 121 % of control. For the same compound, the T/C [9] was 105 % of control, the T/C [3] was 114 % of control and the T/C [10] was 112 % of control. For the same compound, the T/C [4] was 110 % of control, the T/C [15] was 110 % of control and the T/C [5] was 119 % of control.

For `COc1cccc2c1C(=O)c1c(O)c3c(c(O)c1C2=O)CC(O)(C(C)=O)CC3OC1CC(NC(=O)CNC(=O)CN(C)C)C(O)C(C)O1` (configuration not stated), the T/C (dose: 1.56 mg/kg/injection, schedule: Q01DX009 (ip), vehicle: water) was 101 % of control, the T/C [13] was 92 % of control and the T/C [14] was 101 % of control. The T/C (dose: 12.5 mg/kg/injection, schedule: Q01DX009 (ip), vehicle: water) was 91 % of control.

For `[O-][n+]1c(CCl)nc2ccccc2c1-c1ccccc1F`, the T/C [8] was 118 % of control and the T/C [9] was 105 % of control.

In the case of `CN1CCN(c2nc3cccnc3s2)CC1`, the T/C [11] is reported as 93 % of control.

With `O=C1Oc2ccccc2C(=O)/C1=C1\SSC(c2ccccc2)=C1c1ccccc1` the T/C [8] was 99 % of control, the T/C [9] was 96 % of control and the T/C [10] was 96 % of control.

`Cc1nc(Cl)c(C(N)=O)nc1C` was tested, and the T/C [16] was 91 % of control, the T/C [7] was 88 % of control and 94 % of control and the T/C [8] was 97 % of control. For the same compound, the T/C (dose: 50.0 mg/kg/injection, schedule: Q04DX003 (ip), vehicle: saline with Tween-80) was 113 % of control, the T/C [9] was 90 % of control and 106 % of control and the T/C [3] was 96 % of control. The T/C [1] was 97 % of control, the T/C [4] was 92 % of control and the T/C [5] was 99 % of control.

For `COc1cc(/C=C/[N+](=O)[O-])c(OC)cc1Br`, the T/C (dose: 3.12 mg/kg/injection, schedule: Q01DX009 (ip), vehicle: saline with Tween-80) was 99 % of control, the T/C (dose: 6.25 mg/kg/injection, schedule: Q01DX009 (ip), vehicle: saline with Tween-80) was 103 % of control and the T/C [16] was 105 % of control. For the same compound, the T/C [7] was 153 % of control and the T/C [8] was 94 % of control.

In the case of `Nc1nc2nc(-c3ccccc3)nc(N)c2nc1Sc1ccc(Cl)cc1`, the T/C [3] is reported as 94 % of control, the T/C [4] is reported as 103 % of control and the T/C [5] is reported as 103 % of control.

In the case of `Oc1c(Cl)cc(Cl)cc1C1N=NC2=C(CCCC2)N1O` (configuration not stated), the T/C [8] is reported as 106 % of control, the T/C [9] is reported as 88 % of control and the T/C [10] is reported as 93 % of control.

For `COc1cccc2c1C(=O)c1c(O)c3c(c(O)c1C2=O)C[C@@](O)(/C(C)=N/NC(=O)c1ccc(Cl)cc1)C[C@@H]3OC1CC(N)C(O)C(C)O1` (some centres not stated), the T/C (dose: 0.5 mg/kg/injection, schedule: Q01DX009 (ip), vehicle: water) was 110 % of control, the T/C (dose: 1.0 mg/kg/injection, schedule: Q01DX009 (ip), vehicle: water) was 107 % of control and 214 % of control and the T/C (dose: 2.0 mg/kg/injection, schedule: Q01DX009 (ip), vehicle: water) was 303 % of control. For the same compound, the T/C (dose: 4.0 mg/kg/injection, schedule: Q01DX009 (ip), vehicle: water) was 238 % of control and 115 % of control and the T/C (dose: 8.0 mg/kg/injection, schedule: Q01DX009 (ip), vehicle: water) was 164 % of control.

`CCC(C)C(C)(COC(N)=O)COC(N)=O` (configuration not stated) was tested, and the T/C [6] was 90 % of control, the T/C (dose: 200.0 mg/kg/injection, schedule: Q01DX009 (ip), vehicle: Klucel (hydroxypropylcellulose) (HPC)) was 86 % of control and the T/C (dose: 400.0 mg/kg/injection, schedule: Q01DX009 (ip), vehicle: Klucel (hydroxypropylcellulose) (HPC)) was 95 % of control.

For `O=C(NCc1cnccn1)Oc1ccc([N+](=O)[O-])cc1`, the T/C [8] was 112 % of control, the T/C [9] was 94 % of control and the T/C [10] was 86 % of control. The T/C [15] was 97 % of control.

In the case of `NC(=S)N/N=C/c1ccc(OC(=O)COc2ccccc2)cn1`, the T/C (dose: 1.56 mg/kg/injection, schedule: Q01DX009 (ip), vehicle: saline with Tween-80) is reported as 124 % of control, the T/C [16] is reported as 163 % of control and the T/C [7] is reported as 181 % of control. The T/C [8] was 209 % of control and the T/C [9] was 235 % of control.

With `CCOC(=O)c1[nH]cnc1/N=N/N(C)CCO` the T/C (dose: 14.0 mg/kg/injection, schedule: Q01DX009 (ip), vehicle: saline) was 104 % of control, the T/C (dose: 21.0 mg/kg/injection, schedule: Q01DX009 (ip), vehicle: saline) was 100 % of control and the T/C (dose: 66.0 mg/kg/injection, schedule: Q01DX009 (ip), vehicle: saline) was 115 % of control. The T/C (dose: 264.0 mg/kg/injection, schedule: Q01DX009 (ip), vehicle: saline with Tween-80) was 113 % of control, the T/C (dose: 600.0 mg/kg/injection, schedule: Q01DX009 (ip), vehicle: saline with Tween-80) was 118 % of control and the T/C (dose: 600.0 mg/kg/injection, schedule: Q01DX009 (ip), vehicle: saline) was 163 % of control.

In the case of `CS(=O)CC(O)(c1ccccc1)c1ccco1` (configuration not stated), the T/C [8] is reported as 116 % of control, the T/C [9] is reported as 107 % of control and the T/C [10] is reported as 106 % of control.

In the case of `Cc1ccccc1N1C(=O)CSC1=S`, the T/C [3] is reported as 100 % of control, the T/C [12] is reported as 90 % of control and the T/C [4] is reported as 100 % of control. For the same compound, the T/C (dose: 300.0 mg/kg/injection, schedule: Q04DX003 (ip), vehicle: saline with Tween-80) was 100 % of control and the T/C [5] was 90 % of control.

Reference: PubChem BioAssay AID328 (DTP/NCI, 2004)
